From patent publication US20070123556A1, “Treatment with Sigma Receptor Agonists Post-Stroke” (UNIVERSITY OF SOUTH FLORIDA, priority 2005, published 2007)
Read-outs that look alike come from different tables or passages of the source.

Assays:
ASIC channels = experiment: low-pH (pH 6.0) evoked ASIC-mediated increases in [Ca2+]i; format: cell-based, rat; conditions: 100 μM, pH 6.0
rats subjected to MCAO [1] = experiment: Fluoro-Jade infarct area after MCAO; format: in vivo, rat
rats subjected to MCAO [2] = experiment: NeuN immunostaining, viable neurons after MCAO; format: in vivo, rat; conditions: 15 mg/kg
Description: MCAO surgery was performed as previously reported by Vendrame et al (Vendrame et al., 2004) and originally described by Longa et al (Longa et al., 1989). Laser Doppler Radar (LDR) was used to monitor decrease in blood perfusion which indicates successful occlusion (Moor Instruments Ltd, Devon, England). A 2 mm diameter hole was drilled into the right parietal bone (1 mm posterior and 4 mm lateral from bregma), and a guide screw was set. The LDR probe (MP10M200ST; Moor) was inserted into the guide screw, and the tip of the probe was placed against the pial surface of the brain. […] For MCAO, the embolus (4 cm long, 6 lb test monofilament) was advanced up the internal carotid artery into the middle cerebral artery and tied off at the internal/external carotid junction to produce permanent occlusion. The rat was then sutured, given a 1 ml subcutaneous injection of saline, and allowed to wake in a fresh cage. […]
[…]. […] The area of the contralateral side of the brain tissue was measured and used to compensate for possible edema in ipsilateral hemispheres. NeuN immunostaining was analyzed using the NIH Image J software to count NeuN positive cells by particle analysis in the ipsilateral hemispheres of the corticalustriatal and corticaluhippocampal regions of the rat brains at a magnification of 10×.

rats subjected to MCAO [3] = experiment: GFAP immunostaining, reactive astrocytes after MCAO; format: in vivo, rat; conditions: 15 mg/kg DTG from 24 h post-MCAO
Description: MCAO surgery was performed as previously reported by Vendrame et al (Vendrame et al., 2004) and originally described by Longa et al (Longa et al., 1989). Laser Doppler Radar (LDR) was used to monitor decrease in blood perfusion which indicates successful occlusion (Moor Instruments Ltd, Devon, England). A 2 mm diameter hole was drilled into the right parietal bone (1 mm posterior and 4 mm lateral from bregma), and a guide screw was set. The LDR probe (MP10M200ST; Moor) was inserted into the guide screw, and the tip of the probe was placed against the pial surface of the brain. […] For MCAO, the embolus (4 cm long, 6 lb test monofilament) was advanced up the internal carotid artery into the middle cerebral artery and tied off at the internal/external carotid junction to produce permanent occlusion. The rat was then sutured, given a 1 ml subcutaneous injection of saline, and allowed to wake in a fresh cage.
Rats were randomly assigned to 1 of 7 groups: (1) MCAO (n=7); (2) MCAO and 15 mg/kg DTG in a 3% lactic acid vehicle (n=11); (3) MCAO and 30 mg/kg DTG (n=16); (4) MCAO and bi-daily injections of 30 mg/kg DTG (n=12); (5) MCAO and 10 mg/kg N-[2-(3,4-dichlorophenyl)ethyl]-N-methyl-2-(dimethylamino)ethylamine (BD 1047) (n=4); (6) MCAO and 10 mg/kg BD1047+30 mg/kg DTG (n=4); (7) sham/MCAO and 15 mg/kg DTG (n=4). […]

rats subjected to MCAO [4] = tested on: rats subjected to MCAO
glutamate receptors = conditions: 100 μM; cited from earlier work
rats = conditions: doses as high as 30 mg/kg; cited from earlier work

In the case of `Cc1ccccc1NC(=N)Nc1ccccc1C` [DTG, 1,3-di-o-tolyguanidine], the “effect on low-pH evoked transient increases in [Ca2+]i” value (ASIC channels) was “inhibits”, the “decrease of Fluoro-Jade staining relative to untreated MCAO animals” value (rats subjected to MCAO [1]; 15 mg/kg, 24 hr post stroke) was greater than 85% and the “infarct area (Fluoro-Jade labeled)” value (rats subjected to MCAO [1]; cortical/hippocampal region, 15 mg/kg DTG from 24 h post-MCAO (MCAO-only 29±3%)) was 2±2%. The “infarct area (Fluoro-Jade labeled)” value (rats subjected to MCAO [1]; cortical/striatal region, 15 mg/kg DTG from 24 h post-MCAO (MCAO-only 44±5%)) was 6±4%, the “increase of surviving NeuN cells in the infarct zone relative to MCAO-only animals” value (rats subjected to MCAO [2]; 24 hr post stroke) was greater than 83% and the “number of viable neurons (NeuN) in ipsilateral infarct zones” value (rats subjected to MCAO [2]; cortical/striatal and cortical/hippocampal, p<0.001) was “significantly increased”. For the same compound, the “level of GFAP expression in brain sections” value (rats subjected to MCAO [3]) was “marked decrease”, the “survival rate 96 hours post MCAO” value (rats subjected to MCAO [4]; 15 mg/kg daily s.c. at 24, 48, 72 h post MCAO) was “over 70%” and the “survival rate 96 hours post MCAO” value (rats subjected to MCAO [4]; 30 mg/kg daily s.c. at 24, 48, 72 h post MCAO) was “under 40%”. The “deaths in sham animals following DTG application” value (rats subjected to MCAO [4]; sham control, 15 mg/kg DTG) was “none”, the “inhibition of calcium elevations evoked by glutamate application” value (glutamate receptors) was “not” and the tolerability (rats) was “well tolerated”.
